According to paper PMC4059246 (Journal of Medicinal Chemistry, 2014):
Read-outs that look alike come from different tables or passages of the source.

Key:
RPA194 [1] = assay: Western blotting for RPA194 in U2OS cell lysates; assay type: cell-based
NCI60 cancer cell lines = details: cited from earlier work
[2] = after 25 mg/kg ip dose; cited from earlier work
tumor burden = details: mouse xenograft assays; cited from earlier work
[3] = Human liver microsomal stability assay; details: for In vitro stability compared with compound 2: human liver microsomes
U2OS cells = assay: Cell viability, WST-1 assay; details: U2OS cells, 0, 0.5, 5 μM, 48 h, WST-1 (Figure 5)
NCL [4] = assay: Western blotting for NCL in U2OS cell lysates; details: U2OS cells, 0, 0.1, 1, 10 μM, 3 h (Figure 4)
NCL [5] = details: U2OS cells, 0.5 μM, 3 h (Figure 2B)
RPA194 [6] = details: for Effect on expression of RPA194: U2OS cells, 0.5 μM, 3 h, representative images (Figure 2A)
[7] = U2OS cells, 0, 0.1, 1, 10 μM, 3 h (Figure 4)
[8] = RPA194 and NCL assays in U2OS cells

| SMILES | Degradation of RPA194 by Western blotting (RPA194 [1]; [7]) | Effect on cell viability (U2OS cells) | Effect on nucleolar localization of NCL (NCL [5]) | also measured |
| --- | --- | --- | --- | --- |
| CN(C)CCNC(=O)c1cccn2c(=O)c3cc4ccccc4cc3nc12 [Compound 2, N-[2-(Dimethylamino)ethyl]-12-oxo-12H-benzo[g]pyrido[2,1-b]quinazoline-4-carboxamide] | caused degradation of RPA194 | profound loss of cell viability |  | Anticancer activity (NCI60 cancer cell lines): broad and potent anticancer activity; half-life [2]: 2.5 h; Tumor burden (tumor burden): reduced tumor burden; Major metabolites ([3]; identification of the major metabolites, method not described): N-dealkylation as one of several major metabolites; Expression of NCL by Western blotting (NCL [4]): largely unaffected except at very high (10 μM) concentrations |
| O=C(NCCN1CCCCC1)c1cccn2c(=O)c3cc4ccccc4cc3nc12 [Compound 8, 12-Oxo-N-[2-(1-piperidyl)ethyl]-12H-benzo[g]pyrido[2,1-b]quinazoline-4-carboxamide] | caused degradation of RPA194 | profound loss of cell viability | decreased the nucleolar localization of NCL | In vitro stability compared with compound 2 [3]: did not improve stability |
| O=C(NCCN1CCCC1)c1cccn2c(=O)c3cc4ccccc4cc3nc12 [Compound 9, 12-Oxo-N-(2-pyrrolidin-1-ylethyl)-12H-benzo[g]pyrido[2,1-b]quinazoline-4-carboxamide] |  | profound loss of cell viability | decreased the nucleolar localization of NCL | Effect on expression of RPA194 (RPA194 [6]): almost complete loss of expression of RPA194; In vitro stability compared with compound 2 [3]: did not improve stability |
| CCN(CC)CCNC(=O)c1cccn2c(=O)c3cc4ccccc4cc3nc12 [Compound 10, N-[2-(Diethylamino)ethyl]-12-oxo-12H-benzo[g]pyrido[2,1-b]quinazoline-4-carboxamide] |  |  | decreased the nucleolar localization of NCL | In vitro stability compared with compound 2 [3]: did not improve stability |
| CC(CN(C)C)NC(=O)c1cccn2c(=O)c3cc4ccccc4cc3nc12 (centres unmarked) [Compound 11, N-[2-(Dimethylamino)-1-methylethyl]-12-oxo-12H-benzo[g]pyrido[2,1-b]quinazoline-4-carboxamide] | caused degradation of RPA194 |  | decreased the nucleolar localization of NCL |  |
| O=C(NC1CNC1)c1cccn2c(=O)c3cc4ccccc4cc3nc12 [Compound 12, N-(Azetidin-3-yl)-12-oxo-12H-benzo[g]pyrido[2,1-b]quinazoline-4-carboxamide] |  |  | decreased the nucleolar localization of NCL |  |
| CC(CNC(=O)c1cccn2c(=O)c3cc4ccccc4cc3nc12)N(C)C (centres unmarked) [Compound 13, N-[2-(Dimethylamino)propyl]-12-oxo-12H-benzo[g]pyrido[2,1-b]quinazoline-4-carboxamide] |  | profound loss of cell viability | decreased the nucleolar localization of NCL | Effect on expression of RPA194 (RPA194 [6]): almost complete loss of expression of RPA194 |
| CN(C)CCCCNC(=O)c1cccn2c(=O)c3cc4ccccc4cc3nc12 [Compound 14, N-[4-(Dimethylamino)butyl]-12-oxo-12H-benzo[g]pyrido[2,1-b]quinazoline-4-carboxamide] | less potent | little or no activity |  |  |
| CN(C)CCNC(=O)c1cccn2c(=O)c3ccccc3nc12 [Compound 15, N-[2-(Dimethylamino)ethyl]-11-oxopyrido[2,1-b]quinazoline-6-carboxamide] | less potent | little or no activity |  | Decrease in potency relative to compound 2 (RPA194 [6]): over 40 fold; Effect on expression of RPA194 (RPA194 [6]): no effect |
| CCN(CC)CCNC(=O)c1cccn2c(=O)c3ccccc3nc12 [Compound 16, N-[2-(Diethylamino)ethyl]-11-oxopyrido[2,1-b]quinazoline-6-carboxamide] |  |  |  | Decrease in potency relative to compound 2 (RPA194 [6]; RPA194/NCL assays in U2OS cells, versus compound 2): over 40 fold |
| CN(C)CCOC(=O)c1cccn2c(=O)c3cc4ccccc4cc3nc12 [Compound 17, 2-(Dimethylamino)ethyl 12-Oxo-12H-benzo[g]pyrido[2,1-b]quinazoline-4-carboxylate] |  |  |  | Biological activity (in words) (RPA194 [6]; [8]): significant loss in potency |
| CN(C)CCN(C)C(=O)c1cccn2c(=O)c3cc4ccccc4cc3nc12 [Compound 18, N-[2-(Dimethylamino)ethyl]-N-methyl-12-oxo-12H-benzo[g]pyrido[2,1-b]quinazoline-4-carboxamide] |  | little or no activity |  | Degradation of RPA194 by Western blotting (RPA194 [1]): inactive |
| CC(C)N1CCN(C(=O)c2cccn3c(=O)c4cc5ccccc5cc4nc23)CC1 [Compound 31, 4-(4-Isopropylpiperazine-1-carbonyl)-12H-benzo[g]pyrido[2,1-b]quinazoline-12-one] |  |  |  | Biological activity (in words) (RPA194 [6]): inactive |
| CN(C)[C@H]1CCN(C(=O)c2cccn3c(=O)c4cc5ccccc5cc4nc23)C1 [Compound 33, 4-[(3S)-3-(Dimethylamino)pyrrolidine-1-carbonyl]-12H-benzo[g]pyrido[2,1-b]quinazoline-12-one] |  |  |  | Biological activity (in words) (RPA194 [6]; [8]): inactive |
| CCN(CC)C1CCN(C(=O)c2cccn3c(=O)c4cc5ccccc5cc4nc23)C1 (centres unmarked) [Compound 34, 4-[3-(Diethylamino)pyrrolidine-1-carbonyl]-12H-benzo[g]pyrido[2,1-b]quinazoline-12-one] |  |  |  | Biological activity (in words) (RPA194 [6]; [8]): inactive |
| O=C(NCCN1CCOCC1)c1cccn2c(=O)c3cc4ccccc4cc3nc12 [Compound 36, N-(2-Morpholinoethyl)-12-oxo-12H-benzo[g]pyrido[2,1-b]quinazoline-4-carboxamide] | less potent | little or no activity |  |  |
